In PMC9995496, “A screen for MeCP2-TBL1 interaction inhibitors using a luminescence-based assay” (Scientific Reports, 2023):
Where a name gives a salt, the structure may show the parent alone. Read-outs that look alike come from different tables or passages of the source. Values belong to the compound of their own block, whether it stands above or below them.

System: PRKACA-PRKAR2A interaction (SmBiT-PRKACA / LgBiT-PRKAR2A), protein kinase A
Parameters: NanoLuc complementation counter-screen in cell extract, PRKACA with PRKAR2A, loss of luminescence, detects NanoLuc interference
Settings: counter-screen for NanoLuc interference, 0.5 h, 20 µM, inhibitor

SMILES: CNC(=O)c1ccc(C)c(-n2c(C)cc(OCc3ccc(F)cc3F)c(Br)c2=O)c1 [UM0141978:01, PH-797804]
- Inh (PKA): 5.099%

SMILES: Nc1nc2[nH]cnc2c(=S)[nH]1 [UM0141747:01, Thioguanine]
- Inh (PKA): 3.135%

SMILES: C=CCNc1ncnc2ccc(Br)cc12 [UM0142792:01, SMER 28]
- Inh (PKA): 2.149%

SMILES: O=C(O)c1ccccc1O [UM0038620:02, Salicylic acid]
- Inh (PKA): 0.4961%

SMILES: Cc1ccc(C(=O)Nc2cccc(C(F)(F)F)c2)cc1Nc1nc(-c2cccnc2)nc2c1cnn2C [UM0130987:02, NVP-BHG712]
- Inh (PKA): 37.9%

SMILES: COc1c(C)c2c(c(O)c1C/C=C(\C)CCC(=O)O)C(=O)OC2 [UM0132795:02, Mycophenolic acid]
- Inh (PKA): 1.414%

SMILES: CN[C@H](CC(C)C)C(=O)N[C@H]1C(=O)N[C@@H](CC(N)=O)C(=O)N[C@H]2C(=O)N[C@H]3C(=O)N[C@H](C(=O)N[C@H](C(=O)O)c4cc(O)cc(O)c4-c4cc3ccc4O)[C@H](O)c3ccc(c(Cl)c3)Oc3cc2cc(c3O[C@@H]2O[C@H](CO)[C@@H](O)[C@H](O)[C@H]2O[C@H]2C[C@](C)(N)[C@H](O)[C@H](C)O2)Oc2ccc(cc2Cl)[C@H]1O [UM0142186:01, Vancomycin hydrochloride]
- Inh (PKA): -0.993%

SMILES: CNCc1ccc(C)c(NC(=O)c2ccc(Nc3nc(-c4ccccc4)c4ccccc4n3)cc2)c1 [UM0141527:01, BMS-833923]
- Inh (PKA): 45.75%

SMILES: COC[C@H]1OC(=O)c2coc3c2[C@@]1(C)C1=C(C3=O)[C@@H]2CCC(=O)[C@@]2(C)C[C@H]1OC(C)=O [UM0134355:02, Wortmannin]
- Inh (PKA): 31.91%

SMILES: O=C1NC(=O)C(c2ccccc2)(c2ccccc2)N1 [UM0142467:01, Phenytoin]
- Inh (PKA): 11.36%

SMILES: CNC(=O)c1ccc(-c2cnc3ncc(Cc4ccc5ncccc5c4)n3n2)cc1F [UM0142048:01, INCB28060]
- Inh (PKA): 6.016%

SMILES: Cn1cc(/C=C/C(=O)c2cccc(F)c2)cc1/C=C/C(=O)NO [UM0141701:01, MC1568]
- Inh (PKA): 48.72%

SMILES: O=c1c(O)c(-c2cc(O)c(O)c(O)c2)oc2cc(O)cc(O)c12 [UM0133944:02, Myricetin]
- Inh (PKA): 47.98%

SMILES: NCCC(O)(P(=O)(O)O)P(=O)(O)O [UM0141459:01, Pamidronate Disodium]
- Inh (PKA): 0.7087%

SMILES: CCCCCCCCc1ccc(CCC(N)(CO)CO)cc1 [UM0142081:01, Fingolimod (FTY720)]
- Inh (PKA): 6.851%

SMILES: Cc1c(Cl)cccc1S(=O)(=O)Nc1nc(CC(=O)N2CCN(C)CC2)cs1 [UM0142740:01, BVT 2733]
- Inh (PKA): 1.989%

SMILES: O=C(O)c1cc(O)c(O)c(O)c1 [UM0120666:03, Gallic acid]
- Inh (PKA): -0.4526%

SMILES: Cc1cc(C)c(CNC(=O)c2cc(-c3ccc(N4CCN(C)CC4)nc3)cc3c2c(C)cn3C(C)C)c(=O)[nH]1 [UM0142656:01, GSK503]
- Inh (PKA): 4.717%

SMILES: CCCc1cc(C)[nH]c(=O)c1CNC(=O)c1cc(-c2ccnc(N3CCN(C)CC3)c2)cc2c1cnn2C(C)C [UM0141559:01, GSK343]
- Inh (PKA): 8.178%

SMILES: CN(CC(=O)N(Cc1ccc(C2CCCCC2)cc1)c1ccc(C(=O)O)cc1)S(=O)(=O)c1c(F)c(F)c(F)c(F)c1F [UM0142580:01, SH-4-54]
- Inh (PKA): 8.361%

SMILES: CC(C)=CCC/C(C)=C/CC/C(C)=C/CSc1ccccc1C(=O)O [UM0141623:01, Salirasib]
- Inh (PKA): 61.94%

SMILES: O=c1[nH]cc(F)c(=O)[nH]1 [UM0133724:03, Fluorouracil (Adrucil)]
- Inh (PKA): 1.181%

SMILES: CC(C)c1cc(CNc2nc(Nc3cc(C4CC4)[nH]n3)cc(N3CCN(C)CC3)n2)on1 [UM0141649:01, XL228]
- Inh (PKA): 43.07%

SMILES: CCCNC(=O)[C@H]1O[C@@H]1C(=O)N[C@H](C(=O)N1CCC[C@H]1C(=O)O)[C@@H](C)CC [UM0141432:01, CA 074]
- Inh (PKA): -0.2737%

SMILES: CC(C)(C)NC(=O)N[C@H](C(=O)N1C[C@H]2[C@@H]([C@H]1C(=O)NC(CC1CCC1)C(=O)C(N)=O)C2(C)C)C(C)(C)C (some centres unmarked) [UM0141529:01, Boceprevir]
- Inh (PKA): 1.202%

SMILES: COc1ccc(S(=O)(=O)Nc2ccccc2CN(C)C/C=C/c2ccc(Cl)cc2)cc1 [UM0141573:01, KN-92 phosphate]
- Inh (PKA): 16.02%

SMILES: O=C(O)[C@@]1(CCCCCCOc2ccc(Cl)cc2)CO1 [UM0142794:01, (R)-(+)-Etomoxir sodium salt]
- Inh (PKA): 1.565%

SMILES: O=C(NC(Cc1cc(=O)[nH]c2ccccc12)C(=O)O)c1ccc(Cl)cc1 (centres unmarked) [UM0142401:01, Rebamipide]
- Inh (PKA): 2.079%

SMILES: O=C(O)CC(O)(CC(=O)O)C(=O)O [UM0121350:03, Lithium Citrate]
- Inh (PKA): -1.116%

Results, then the compound that gave them:

- Inh (PKA): -0.9736%
SMILES: O=C(NCc1ccccc1)c1csc(Nc2ccncn2)n1 [UM0141894:01, Thiazovivin]

- Inh (PKA): 47.57%
SMILES: CCOC(=O)C1=CCCC[C@H]1S(=O)(=O)Nc1ccc(F)cc1Cl [UM0141634:01, TAK-242]

- Inh (PKA): 1.467%
SMILES: O=C(NNc1ccccc1)c1ccncc1 [UM0141803:01, PluriSIn #1 (NSC 14613)]

- Inh (PKA): 5.257%
SMILES: CN(C)C(=O)c1cc2cnc(Nc3ccc(N4CCNCC4)cn3)nc2n1C1CCCC1 [UM0142108:01, LEE011]

- Inh (PKA) (Inh (PKA)): -5.28%
SMILES: C[C@@H](N)[C@H]1CC[C@H](C(=O)Nc2ccncc2)CC1 [UM0141498:02, Y-27632]

- Inh (PKA): 14.04%
SMILES: CCOc1cc(N2CCC(O)CC2)ccc1Nc1ncc2c(n1)N(C)c1ccccc1C(=O)N2C [UM0141652:01, XMD8-92]

- Inh (PKA): 2.396%
SMILES: O=C1CCCC(=O)C1C(=O)c1ccc(C(F)(F)F)cc1[N+](=O)[O-] [UM0142524:01, Nitisinone]

- Inh (PKA): 1.874%
SMILES: C=C[C@H]1CN2CC[C@H]1C[C@H]2[C@H](O)c1ccnc2ccc(OC)cc12 [UM0142415:01, Quinine HCl Dihydrate]

- Inh (PKA): 1.476%
SMILES: COc1ccc(-c2ccc3c(N4CCOCC4)nc(N4C[C@@H](C)O[C@@H](C)C4)nc3n2)cc1CO [UM0141868:01, KU-0063794]

- Inh (PKA): 94.06%
SMILES: COC(=O)C1=C(C)NC(C)=C(C(=O)OC(C)C)C1c1cccc2nonc12 (centres unmarked) [UM0142050:01, Isradipine (Dynacirc)]

- Inh (PKA): 18.48%
SMILES: COc1ccc(CNc2nc(N3CCC[C@H]3CO)ncc2C(=O)NCc2ncccn2)cc1Cl [UM0141791:01, Avanafil]

- Inh (PKA): 19.2%
SMILES: c1cc(-c2cnn3cc(-c4ccc(OCCN5CCCCC5)cc4)cnc23)ccn1 [UM0127814:02, Dorsomorphin]

- Inh (PKA): 5.956%
SMILES: CC[C@@H](C)Nc1cc(C(=O)N[C@H]2C[C@H]3CC[C@@H](C2)N3c2ccc(C(=O)C3CC3)cn2)c(C)cc1C(N)=O [UM0141828:01, XL-888]

- Inh (PKA): 0.2799%
SMILES: C/C=C1\[C@H]2C=C(C)C[C@]1(N)c1ccc(=O)[nH]c1C2 [UM0133189:02, (-)-Huperzine A]

- Inh (PKA): 18.1%
SMILES: O=C(O)c1ccc(-c2c[nH]c3ncc(-c4ccccc4)cc23)cc1C1CCCC1 [UM0142163:01, GSK 650394]
